From ChEMBL document CHEMBL1201862, “PubChem BioAssay data set” (2004)
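Grown in 96-well plates, cells were treated for 48 hours with each compound at five concentrations. Insufficient inhibition: endpoint recorded as highest concentration tested. Abbreviation: GI50, concentration required for 50% inhibition of growth.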 Active and inactive are the calls of the source. Cut-off read from the data, not from the text of the source: active = GI50 up to about 1.1 µM and inactive = higher.

How the values were obtained:
Experiment in all cases: NCI-60 cell line screen, 48 h
U-251 = tested on: U-251
OVCAR-8 = tested on: OVCAR-8
KM12 = tested on: KM12
OVCAR-3 = tested on: OVCAR-3
NCI-H460 = tested on: NCI-H460
HCT-116 = tested on: HCT-116
HT-29 = tested on: HT-29
DU-145 = tested on: DU-145
IGROV-1 = tested on: IGROV-1
T47D = tested on: T47D
CAKI-1 = tested on: CAKI-1
OVCAR-5 = tested on: OVCAR-5
LOX IMVI = tested on: LOX IMVI
UACC-257 = tested on: UACC-257
ACHN = tested on: ACHN
CCRF-CEM = tested on: CCRF-CEM
UACC-62 = tested on: UACC-62
SK-OV-3 = tested on: SK-OV-3
A549 = tested on: A549
NCI/ADR-RES = tested on: NCI/ADR-RES
OVCAR-4 = tested on: OVCAR-4
TK-10 = tested on: TK-10
BT-549 = tested on: BT-549
SNB-75 = tested on: SNB-75
EKVX = tested on: EKVX
K562 = tested on: K562
HOP-62 = tested on: HOP-62
HCT-15 = tested on: HCT-15
Malme-3M = tested on: Malme-3M
SW-620 = tested on: SW-620
NCI-H522 = tested on: NCI-H522
NCI-H226 = tested on: NCI-H226
SF-539 = tested on: SF-539
MCF7 = tested on: MCF7
SK-MEL-2 = tested on: SK-MEL-2
SK-MEL-28 = tested on: SK-MEL-28
SNB-19 = tested on: SNB-19
MDA-MB-435 = tested on: MDA-MB-435
HL-60 = tested on: HL-60
786-0 = tested on: 786-0
NCI-H23 = tested on: NCI-H23
MDA-MB-231 = tested on: MDA-MB-231
SN12C = tested on: SN12C
SK-MEL-5 = tested on: SK-MEL-5
MDA-N = tested on: MDA-N
Hs-578T = tested on: Hs-578T
RXF 393 = tested on: RXF 393
MOLT-4 = tested on: MOLT-4
COLO 205 = tested on: COLO 205
SF-295 = tested on: SF-295
HCC 2998 = tested on: HCC 2998
M14 = tested on: M14
PC-3 = tested on: PC-3
SF-268 = tested on: SF-268
UO-31 = tested on: UO-31
SR = tested on: SR
HOP-92 = tested on: HOP-92
A498 = tested on: A498

COCOc1cc(OC)ccc1C/C(=N/O)C(=O)OC
GI50 (U-251): > 100 µM (inactive) | GI50 (OVCAR-8): > 100 µM (inactive) | GI50 (KM12): > 100 µM (inactive) | GI50 (OVCAR-3): > 100 µM (inactive) | GI50 (NCI-H460): > 100 µM (inactive) | GI50 (HCT-116): > 100 µM (inactive) | GI50 (HT-29): > 100 µM (inactive) | GI50 (DU-145): > 100 µM (inactive) | GI50 (IGROV-1): > 100 µM (inactive) | GI50 (T47D): > 100 µM (inactive) | GI50 (CAKI-1): > 100 µM (inactive) | GI50 (OVCAR-5): > 100 µM (inactive) | GI50 (LOX IMVI): > 100 µM (inactive) | GI50 (UACC-257): > 100 µM (inactive) | GI50 (ACHN): > 100 µM (inactive) | GI50 (CCRF-CEM): > 100 µM (inactive) | GI50 (UACC-62): > 100 µM (inactive) | GI50 (SK-OV-3): > 100 µM (inactive) | GI50 (A549): > 100 µM (inactive) | GI50 (NCI/ADR-RES): > 100 µM (inactive) | GI50 (OVCAR-4): > 100 µM (inactive) | GI50 (TK-10): > 100 µM (inactive) | GI50 (BT-549): > 100 µM (inactive) | GI50 (SNB-75): 31.8 µM (inactive) | GI50 (EKVX): > 100 µM (inactive) | GI50 (K562): > 100 µM (inactive) | GI50 (HOP-62): > 100 µM (inactive) | GI50 (HCT-15): > 100 µM | GI50 (Malme-3M): > 100 µM (inactive) | GI50 (SW-620): > 100 µM (inactive) | GI50 (NCI-H522): > 100 µM (inactive) | GI50 (NCI-H226): > 100 µM (inactive) | GI50 (SF-539): > 100 µM (inactive) | GI50 (MCF7): > 100 µM (inactive) | GI50 (SK-MEL-2): > 100 µM (inactive) | GI50 (SK-MEL-28): > 100 µM (inactive) | GI50 (SNB-19): > 100 µM (inactive) | GI50 (MDA-MB-435): > 100 µM (inactive) | GI50 (HL-60): > 100 µM (inactive) | GI50 (786-0): > 100 µM (inactive) | GI50 (NCI-H23): > 100 µM (inactive) | GI50 (MDA-MB-231): > 100 µM (inactive) | GI50 (SN12C): > 100 µM (inactive) | GI50 (SK-MEL-5): > 100 µM (inactive) | GI50 (MDA-N): > 100 µM (inactive) | GI50 (Hs-578T): > 100 µM (inactive) | GI50 (RXF 393): > 100 µM (inactive) | GI50 (MOLT-4): > 100 µM (inactive) | GI50 (COLO 205): > 100 µM (inactive) | GI50 (SF-295): > 100 µM (inactive) | GI50 (HCC 2998): > 100 µM (inactive) | GI50 (M14): > 100 µM (inactive) | GI50 (PC-3): > 100 µM (inactive) | GI50 (SF-268): > 100 µM (inactive) | GI50 (UO-31): > 100 µM (inactive)

NC1CC(N)c2c(Br)sc(Br)c21 (stereo not drawn)
GI50 (U-251): > 100 µM (inactive) | GI50 (OVCAR-8): 55.6 µM (inactive) | GI50 (KM12): > 100 µM (inactive) | GI50 (OVCAR-3): > 100 µM (inactive) | GI50 (NCI-H460): > 100 µM (inactive) | GI50 (HCT-116): 87.9 µM (inactive) | GI50 (HT-29): > 100 µM (inactive) | GI50 (DU-145): > 100 µM (inactive) | GI50 (IGROV-1): 39.1 µM (inactive) | GI50 (T47D): 54 µM (inactive) | GI50 (CAKI-1): > 100 µM (inactive) | GI50 (OVCAR-5): > 100 µM (inactive) | GI50 (LOX IMVI): 58.1 µM (inactive) | GI50 (UACC-257): > 100 µM (inactive) | GI50 (ACHN): > 100 µM (inactive) | GI50 (CCRF-CEM): > 100 µM (inactive) | GI50 (UACC-62): > 100 µM (inactive) | GI50 (SK-OV-3): > 100 µM (inactive) | GI50 (A549): 97.7 µM (inactive) | GI50 (NCI/ADR-RES): > 100 µM (inactive) | GI50 (OVCAR-4): > 100 µM (inactive) | GI50 (TK-10): > 100 µM (inactive) | GI50 (BT-549): > 100 µM (inactive) | GI50 (EKVX): > 100 µM (inactive) | GI50 (SR): 59.4 µM (inactive) | GI50 (K562): > 100 µM (inactive) | GI50 (HOP-62): 86.1 µM (inactive) | GI50 (HCT-15): > 100 µM | GI50 (Malme-3M): > 100 µM (inactive) | GI50 (SW-620): 62.2 µM (inactive) | GI50 (NCI-H522): 44.1 µM (inactive) | GI50 (NCI-H226): 77.1 µM (inactive) | GI50 (SF-539): > 100 µM (inactive) | GI50 (MCF7): > 100 µM (inactive) | GI50 (SK-MEL-2): > 100 µM (inactive) | GI50 (SK-MEL-28): > 100 µM (inactive) | GI50 (HOP-92): 28.6 µM (inactive) | GI50 (MDA-MB-435): > 100 µM (inactive) | GI50 (786-0): 95.3 µM (inactive) | GI50 (NCI-H23): > 100 µM (inactive) | GI50 (MDA-MB-231): > 100 µM (inactive) | GI50 (SN12C): > 100 µM (inactive) | GI50 (SK-MEL-5): > 100 µM (inactive) | GI50 (MDA-N): > 100 µM (inactive) | GI50 (Hs-578T): > 100 µM (inactive) | GI50 (MOLT-4): 67.5 µM (inactive) | GI50 (COLO 205): > 100 µM (inactive) | GI50 (SF-295): 98.9 µM (inactive) | GI50 (A498): > 100 µM (inactive) | GI50 (HCC 2998): 55.8 µM (inactive) | GI50 (M14): > 100 µM (inactive) | GI50 (SF-268): 67.3 µM (inactive) | GI50 (UO-31): 41.4 µM (inactive)
